Data as given in patent US20230233425A1, “USE OF VOLATILE COMPOSITIONS TO LIMIT OR ELIMINATE THE PERCEPTION OF MALODOR” (Firmenich SA, priority 2017, published 2023).
Values joined by “and” are separate entries in the source; they are usually repeats but may differ in a detail not shown here. Equal entries are not always repeated. Marks after values point to notes of the source that are not given here.

Tests used:
[1] = system: OR11A1, or the OR2M3 olfactory receptor; assay: Geonol olfactory receptor antagonist cell-based screening, inhibitory dose-response vs geonol EC80; design: species or system human; settings: geonol at EC80; for IC50: read-out: IC50
[2] = system: geonol malodor (earthy/moss odor) perception; assay: Sensory evaluation of geonol earthy/moss odor in iso-intense binary mixtures (glass jars); format: in vivo, human; settings: iso-intense binary mixture
Text: Sensory Evaluation: Five 16 oz glass jars containing either REF (geonol only), geonol only control, antagonist only, mixture of geonol and isointense antagonist, or mixture of geonol and low intensity antagonist were presented to the panelists (last four samples were randomized across panelists). The panelists were asked to familiarize themselves with the earthy/moss odor quality from the REF jar first, then rate the pleasantness, earthy/moss odor intensity and overall odor intensity of the next four samples on a 0-10 linear scale. The inter-stimulus interval between the samples was two minutes to avoid adaptation.

[3] = system: geonol earthy/moss odor perception; assay: Human sensory performance of test compounds with and without geonol; format: in vivo; settings: for % Earthy/Moss Odor: Test Compound Only
Method in brief: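 Panelists first learned the earthy/moss quality from a geonol-only reference, then rated pleasantness, earthy/moss intensity and overall intensity of geonol alone, antagonist alone, and geonol mixed with isointense or low-intensity antagonist on a 0-10 linear scale. Samples were presented in glass jars in randomized order with two-minute intervals.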

Olfr738 = Olfr738 (Mus musculus, UniProt L7N1X7); assay: Indole antagonist dose-response, cAMP HTRF in HEK293T, vs indole EC80; format: cell-based; settings: vs indole EC80; for IC50: read-out: Olfr738 IC50
Chain of Olfr738 (L7N1X7 entry or part of it): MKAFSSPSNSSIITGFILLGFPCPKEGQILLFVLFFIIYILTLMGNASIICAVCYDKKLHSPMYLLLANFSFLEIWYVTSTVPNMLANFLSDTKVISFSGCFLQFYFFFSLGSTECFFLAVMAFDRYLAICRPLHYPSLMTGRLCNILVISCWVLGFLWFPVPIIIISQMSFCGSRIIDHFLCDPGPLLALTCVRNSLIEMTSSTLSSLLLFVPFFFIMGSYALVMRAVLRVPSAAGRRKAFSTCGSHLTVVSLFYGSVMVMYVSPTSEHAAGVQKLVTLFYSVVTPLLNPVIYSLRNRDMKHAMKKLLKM
Procedure: (§1) Using a cell-based assay, mouse receptor Olfr738, Olfr739, Olfr740, Olfr741, 0fr742, Olfr743, Olfr744, Olfr746, Olfr748 and Olfr749 were tested in an HEK293T cell line wherein the endogenous RTP1 gene has been activated and the odorant receptor chaperone was expressed (described in WO2016201153A1). The receptor genes were tagged with a Flag-Rho tag combination. Receptor genes were co-transfected with the canonical olfactory human G-protein alpha subunit Golf gene. Co-expression of the human Golf activates the Gs transduction pathway that leads to an internal cAMP increase upon binding to the appropriate ligand (indole here). Odorant-induced activity was detected by measuring the cAMP increase in the cytosol using an HTRF based kit (CisBio, cAMP dynamic 2 kit, cat. 62AM4PEJ).

Olfr740 = Olfr740 (Mus musculus, UniProt E9PV79); assay: as above; format: cell-based; settings: vs indole EC80; for IC50: read-out: Olfr740 IC50
Chain of Olfr740 (E9PV79 entry or part of it): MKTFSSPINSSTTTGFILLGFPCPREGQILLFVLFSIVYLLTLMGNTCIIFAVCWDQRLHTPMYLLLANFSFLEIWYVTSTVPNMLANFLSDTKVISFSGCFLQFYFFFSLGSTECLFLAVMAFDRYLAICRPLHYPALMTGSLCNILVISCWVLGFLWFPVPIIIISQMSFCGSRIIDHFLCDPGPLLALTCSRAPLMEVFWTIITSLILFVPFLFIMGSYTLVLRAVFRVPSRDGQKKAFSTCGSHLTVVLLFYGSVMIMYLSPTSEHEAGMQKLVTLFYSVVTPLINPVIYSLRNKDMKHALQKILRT
Procedure: as §1

Olfr741 = Olfr741 (Mus musculus, UniProt L7N1Y5); assay: as above; format: cell-based
Chain of Olfr741 (L7N1Y5 entry or part of it): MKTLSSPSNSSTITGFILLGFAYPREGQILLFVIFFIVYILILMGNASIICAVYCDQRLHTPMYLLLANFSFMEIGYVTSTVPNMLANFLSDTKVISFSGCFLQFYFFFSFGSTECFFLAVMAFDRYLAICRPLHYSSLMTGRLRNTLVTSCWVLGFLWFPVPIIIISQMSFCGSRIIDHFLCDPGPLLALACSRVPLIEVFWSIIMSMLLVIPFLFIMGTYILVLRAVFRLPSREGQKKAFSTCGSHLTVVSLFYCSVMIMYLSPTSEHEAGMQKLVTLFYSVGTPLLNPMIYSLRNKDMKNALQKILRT
Procedure: as §1

Olfr742 = Olfr742 (Mus musculus, UniProt A2RTP5); assay: as above; format: cell-based; settings: vs indole EC80; for IC50: read-out: Olfr742 IC50
Chain of Olfr742 (A2RTP5 entry or part of it): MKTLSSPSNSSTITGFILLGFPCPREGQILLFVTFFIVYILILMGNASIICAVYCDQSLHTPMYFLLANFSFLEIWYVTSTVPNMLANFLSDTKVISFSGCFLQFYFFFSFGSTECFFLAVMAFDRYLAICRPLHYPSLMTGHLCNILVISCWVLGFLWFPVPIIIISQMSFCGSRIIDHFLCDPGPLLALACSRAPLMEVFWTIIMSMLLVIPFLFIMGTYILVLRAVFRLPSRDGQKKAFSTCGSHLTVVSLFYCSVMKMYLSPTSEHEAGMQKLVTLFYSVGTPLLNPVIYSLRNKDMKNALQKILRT
Procedure: as §1

Olfr748 = Olfr748 (Mus musculus, UniProt E9Q9Z0); assay: as above; format: cell-based; settings: Table 23
Chain of Olfr748 (E9Q9Z0 entry or part of it): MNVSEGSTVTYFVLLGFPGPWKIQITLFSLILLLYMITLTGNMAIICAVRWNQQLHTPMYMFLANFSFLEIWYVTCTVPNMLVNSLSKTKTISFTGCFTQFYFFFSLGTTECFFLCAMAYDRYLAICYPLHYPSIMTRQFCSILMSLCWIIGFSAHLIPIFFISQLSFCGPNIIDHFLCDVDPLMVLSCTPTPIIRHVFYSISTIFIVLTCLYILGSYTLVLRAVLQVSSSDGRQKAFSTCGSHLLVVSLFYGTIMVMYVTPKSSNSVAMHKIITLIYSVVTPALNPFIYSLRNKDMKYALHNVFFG
Procedure: as §1

Olfr743 = Olfr743 (Mus musculus, UniProt L7N1Y2); assay: as above; format: cell-based; settings: Table 23
Chain of Olfr743 (L7N1Y2 entry or part of it): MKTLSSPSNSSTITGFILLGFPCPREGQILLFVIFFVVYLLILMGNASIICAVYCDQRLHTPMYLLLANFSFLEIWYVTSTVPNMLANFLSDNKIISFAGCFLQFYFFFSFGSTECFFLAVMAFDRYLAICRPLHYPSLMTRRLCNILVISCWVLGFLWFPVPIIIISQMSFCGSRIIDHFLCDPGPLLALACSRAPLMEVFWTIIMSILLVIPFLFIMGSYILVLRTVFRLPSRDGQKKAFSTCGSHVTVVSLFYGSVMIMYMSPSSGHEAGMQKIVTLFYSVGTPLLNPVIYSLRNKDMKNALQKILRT
Procedure: as §1, with “Functional dose-response experiments were performed to identify compounds capable of antagonizing indole-sensitive receptors previously identified (U.S. Pat. No. 9,914,760 B2). Using” for “Using”, “62AM4PEJ). The receptors were exposed to binary mixtures of increasing concentrations of the test compounds in the presence of a potent activation concentration of indole (EC80) for each receptor. […] All the compounds listed decreased the indole induced activity of at least one receptor.” for “62AM4PEJ).”

Olfr746 = biological target: T1, Olfr746 (Mus musculus, UniProt E9Q840); assay: as above; format: cell-based; settings: Table 23
T1 construct: Flag; Rho tag; expressed in transfected cells
T1 sequence (E9Q840 1-314): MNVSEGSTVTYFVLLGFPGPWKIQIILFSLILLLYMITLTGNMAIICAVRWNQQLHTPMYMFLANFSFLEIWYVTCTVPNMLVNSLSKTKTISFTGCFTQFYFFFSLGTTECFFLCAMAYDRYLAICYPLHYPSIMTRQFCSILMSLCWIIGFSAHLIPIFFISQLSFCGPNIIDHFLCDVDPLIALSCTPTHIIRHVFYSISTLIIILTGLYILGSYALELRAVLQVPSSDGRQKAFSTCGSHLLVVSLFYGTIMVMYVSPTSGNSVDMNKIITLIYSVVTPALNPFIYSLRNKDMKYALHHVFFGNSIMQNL
Procedure: as §1, with “Functional dose-response experiments were performed to identify compounds capable of antagonizing indole-sensitive receptors previously identified (U.S. Pat. No. 9,914,760 B2). Using” for “Using”, “62AM4PEJ). The receptors were exposed to binary mixtures of increasing concentrations of the test compounds in the presence of a potent activation concentration of indole (EC80) for each receptor. […] All the compounds listed decreased the indole induced activity of at least one receptor.” for “62AM4PEJ).”

Olfr749 = biological target: T2, Olfr749 (Mus musculus, UniProt E9Q438); assay: as above; format: cell-based; settings: Table 23
T2 construct: Flag; Rho tag; expressed in transfected cells
T2 sequence (E9Q438 1-313): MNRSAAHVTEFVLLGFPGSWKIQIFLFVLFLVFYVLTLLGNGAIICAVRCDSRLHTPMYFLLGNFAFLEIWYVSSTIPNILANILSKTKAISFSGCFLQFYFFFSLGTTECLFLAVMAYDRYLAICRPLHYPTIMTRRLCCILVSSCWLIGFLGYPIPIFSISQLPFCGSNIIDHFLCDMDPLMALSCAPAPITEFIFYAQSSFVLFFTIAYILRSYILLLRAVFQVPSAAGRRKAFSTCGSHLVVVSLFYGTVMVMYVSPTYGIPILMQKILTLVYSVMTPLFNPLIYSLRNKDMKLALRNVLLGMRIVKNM
Procedure: as §1, with “Functional dose-response experiments were performed to identify compounds capable of antagonizing indole-sensitive receptors previously identified (U.S. Pat. No. 9,914,760 B2). Using” for “Using”, “62AM4PEJ). The receptors were exposed to binary mixtures of increasing concentrations of the test compounds in the presence of a potent activation concentration of indole (EC80) for each receptor. […] All the compounds listed decreased the indole induced activity of at least one receptor.” for “62AM4PEJ).”

[4] = system: 1-octen-3-ol mushroom/earthy/fungal odor perception; assay: Human sensory performance of test compounds with and without 1-octen-3-ol; format: in vivo
[5] = biological target: 1-octen-3-ol receptors OR2W1, Olfr93, Olfr120, Olfr398; assay: Antagonists of 1-octen-3-ol receptors (Example 11); format: cell-based, mouse and human; design: Inhibition(%): concentration or dose not given beside the values; settings: Table 19
Olfr744 = biological target: T3, Olfr744 (Mus musculus, UniProt Q7TRM0); assay: Indole antagonist dose-response, cAMP HTRF in HEK293T, vs indole EC80; format: cell-based; settings: Table 23
T3 construct: Flag; Rho tag; expressed in transfected cells
T3 sequence (Q7TRM0 1-323): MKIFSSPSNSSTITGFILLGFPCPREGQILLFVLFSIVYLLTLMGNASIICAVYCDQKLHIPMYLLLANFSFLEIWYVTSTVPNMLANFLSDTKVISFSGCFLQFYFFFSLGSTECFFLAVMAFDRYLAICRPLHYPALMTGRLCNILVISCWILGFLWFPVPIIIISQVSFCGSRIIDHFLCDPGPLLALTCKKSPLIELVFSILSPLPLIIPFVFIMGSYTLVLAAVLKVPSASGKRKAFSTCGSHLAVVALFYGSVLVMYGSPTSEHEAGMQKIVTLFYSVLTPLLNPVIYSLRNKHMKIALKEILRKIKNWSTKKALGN
Procedure: as §1, with “Functional dose-response experiments were performed to identify compounds capable of antagonizing indole-sensitive receptors previously identified (U.S. Pat. No. 9,914,760 B2). Using” for “Using”, “62AM4PEJ). The receptors were exposed to binary mixtures of increasing concentrations of the test compounds in the presence of a potent activation concentration of indole (EC80) for each receptor. […] All the compounds listed decreased the indole induced activity of at least one receptor.” for “62AM4PEJ).”

[6] = Low Dilution Test Compound + Geonol (0.1%)
[7] = Medium Dilution Test Compound + Geonol (0.1%)
[8] = Table 22, second listing of the same compounds

Row | Substance | IC50 [1] | % Remaining in human sensory tests [2] | % Earthy/Moss Odor Remaining [3, 6] | % Earthy/Moss Odor Remaining [3, 7] | % Earthy/Moss Odor [3] | Olfr738 % Inhibition (Olfr738; Table 22, first listing) | IC50 (Olfr738; Table 22, first listing) | Olfr740 % Inhibition (Olfr740; Table 22, first listing) | IC50 (Olfr740; Table 22, first listing) | Olfr740 % Inhibition (Olfr740; [8]) | IC50 (Olfr741; [8]) | Olfr741 % Inhibition (Olfr741; [8]) | Olfr742 % Inhibition (Olfr742; Table 22, first listing) | IC50 (Olfr742; Table 22, first listing) | Olfr742 % Inhibition (Olfr742; [8]) | IC50 (Olfr748) | Olfr748 % Inhibition (Olfr748) | IC50 (Olfr743) | Olfr743 % Inhibition (Olfr743) | IC50 (Olfr749) | further results
1 | 1-(3,3-dimethylcyclohexen-1-yl)pent-4-en-1-one; 1-(5,5-dimethylcyclohexen-1-yl)pent-4-en-1-one | 111 µM and 148 µM | 58* % | 85.80% | 72.30% | 34.50% | 33.49% | 6.29 µM | 179.31% | 1.68 µM | 94.28% | 81.6 µM | 66.47% | 146.91% | 4.3 µM | 90.61% | 81.6 µM | 66.47% | 210 µM | 59.11% | 46.2 µM | Olfr738 % Inhibition (Olfr738; [8]): 59.11%; IC50 (Olfr741; Table 22, first listing): 131 µM; Olfr741 % Inhibition (Olfr741; Table 22, first listing): 124.57%; IC50 (Olfr746): 89.4 µM; Olfr746 % Inhibition (Olfr746): 94.28%; Olfr749 % Inhibition (Olfr749): 90.61%
2 | 3-(4-hydroxy-4-methylpentyl)cyclohex-3-ene-1-carbaldehyde; 4-(4-hydroxy-4-methylpentyl)cyclohex-3-ene-1-carbaldehyde | 217 µM | – | 85.70% | 78.70% | 15.40% | 14.67% | 166 µM | 72.15% | 185 µM | 43.95% | 213 µM | 48.14% | 41.42% | 182 µM | 62.05% | 213 µM | 48.14% | – | – | 233 µM | % Inhibition [1]: 60%; IC50 (Olfr746): 373 µM; Olfr746 % Inhibition (Olfr746): 43.95%; Olfr749 % Inhibition (Olfr749): 62.05%
3 | 4-(2,6,6-trimethylcyclohexen-1-yl)but-3-en-2-one; 4-(2,6,6-trimethylcyclohex-2-en-1-yl)but-3-en-2-one | – | 59* % | 73.40% | 70.30% | 27.10% | – | – | – | – | – | – | – | – | – | – | – | – | 275 µM and 159 µM | 114.78% and 112.64% | 75.8 µM and 76 µM | % Mushroom/Earthy/Fungal Odor Remaining ([4]; Low Dilution Test Compound + 1-octen-3-ol (0.15%)): 94.80%; % Mushroom/Earthy/Fungal Odor Remaining ([4]; Medium Dilution Test Compound + 1-octen-3-ol (0.15%)): 73.90%; % Mushroom/Earthy/Fungal Odor ([4]; Test Compound Only): 20.30%; IC50 [5]: 146 µM; Inhibition(%) [5]: 79%; IC50 (Olfr744): 125 µM and 159 µM; Olfr744 % Inhibition (Olfr744): 78.23% and 77.99%
